Calls of active or inactive are those of the source.
How the values were obtained:
[1] = Trypanosoma cruzi growth suppression in host cells – NIH3T3 host cells, beta-gal luminescence, confirmation (AID 2044); type: functional, cell-based;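 further: intracellular parasites grown in NIH/3T3 mouse fibroblasts as host cells; luminescent beta-galactosidase reporter signal from transgenic T. cruzi replicating inside host cells; inhibitors lower the luminescence signal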
[2] = target: Protein Wnt-3a (Mus musculus, UniProt P27467); assay: antagonism of Wnt3a pathway luciferase reporter – Wnt-LIGHT cells, luminescence, selectivity assay for Gli-SUFU antagonist project, dose response (AID 651570); type: functional; conditions: read-out: IC50_Mean;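 further: Wnt-LIGHT reporter cells stimulated with conditioned medium from Wnt3a-producing cells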
[3] = NIH3T3 cell viability loss – ATP luminescence, mouse fibroblasts, counter-screen, dose response (AID 2010); type: functional, cell-based;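 further: cells exposed to compound for about 90 hours before reading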
[4] = target: T1, Protein skinhead-1 (Caenorhabditis elegans, UniProt P34707); type: functional
T1 sequence (P34707 whole entry): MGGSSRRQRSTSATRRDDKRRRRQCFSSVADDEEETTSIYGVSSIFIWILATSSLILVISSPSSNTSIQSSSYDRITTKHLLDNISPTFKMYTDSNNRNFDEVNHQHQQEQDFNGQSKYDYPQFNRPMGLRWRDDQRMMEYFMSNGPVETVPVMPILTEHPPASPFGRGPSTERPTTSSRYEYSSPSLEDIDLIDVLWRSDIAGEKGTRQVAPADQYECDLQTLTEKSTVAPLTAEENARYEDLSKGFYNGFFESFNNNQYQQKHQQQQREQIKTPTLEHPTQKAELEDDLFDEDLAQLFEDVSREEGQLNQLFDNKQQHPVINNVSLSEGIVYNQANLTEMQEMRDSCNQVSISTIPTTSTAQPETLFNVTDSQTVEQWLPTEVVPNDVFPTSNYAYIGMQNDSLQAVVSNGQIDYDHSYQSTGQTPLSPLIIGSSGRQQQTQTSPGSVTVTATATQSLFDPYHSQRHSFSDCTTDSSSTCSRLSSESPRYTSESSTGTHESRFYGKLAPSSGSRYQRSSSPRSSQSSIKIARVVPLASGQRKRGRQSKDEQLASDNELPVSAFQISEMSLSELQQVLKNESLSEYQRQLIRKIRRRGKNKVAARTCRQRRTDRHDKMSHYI

[5] = test system: Vero; assay: cells; type: functional; conditions: Chlorocebus sabaeus
[6] = target: Hepatocyte nuclear factor 4-alpha (Homo sapiens, UniProt P41235); type: functional, cell-based;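 further: biochemical luminescence-based dose-response counterscreen measuring inhibition of HNF4 dimerization, run alongside a screen for blockers of ABHD5–perilipin-5 interaction; split luciferase complementation of HNF4 fusion proteins in cell lysate measuring dimerization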
[7] = target: T2, Heat shock factor protein 1 (Mus musculus, UniProt P38532); assay: enhancement of HSF1-driven luciferase signal – cell-based, NIH3T3, luminescence, dose retest, confirmation (AID 435004); type: functional;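 further: stress induced by proteasome inhibitor MG132 added 30 min after compound; luciferase reporter driven by HSF1 response element in NIH3T3 cells; actives raise luminescence as potentiators of the MG132 stress response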
T2 sequence (P38532 whole entry): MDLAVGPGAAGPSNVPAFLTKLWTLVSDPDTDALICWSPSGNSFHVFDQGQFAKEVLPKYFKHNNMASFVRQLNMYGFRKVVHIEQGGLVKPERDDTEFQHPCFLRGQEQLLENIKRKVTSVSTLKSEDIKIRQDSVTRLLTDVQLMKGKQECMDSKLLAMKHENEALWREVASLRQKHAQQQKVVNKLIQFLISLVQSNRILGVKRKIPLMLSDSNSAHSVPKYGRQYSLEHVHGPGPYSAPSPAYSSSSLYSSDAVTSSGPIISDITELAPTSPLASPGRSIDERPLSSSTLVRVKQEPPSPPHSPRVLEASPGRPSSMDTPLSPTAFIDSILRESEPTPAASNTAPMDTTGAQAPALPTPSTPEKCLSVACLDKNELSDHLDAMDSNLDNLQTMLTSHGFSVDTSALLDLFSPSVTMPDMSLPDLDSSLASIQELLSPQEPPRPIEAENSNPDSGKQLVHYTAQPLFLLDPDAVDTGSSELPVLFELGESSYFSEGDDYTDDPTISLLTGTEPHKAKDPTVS

[8] = Luminescence Cell-Based Dose Retest to Confirm Inhibitors of Cancer Stem Cells. [Related pubchem assays (depositor defined):AID2717, AID2721]; type: functional; conditions: Homo sapiens
[9] = target: T3, Beta-2 adrenergic receptor (Homo sapiens, UniProt P07550); assay: Dose response for HTS for Beta-2AR agonists via FAP method from Powderset1.; type: functional
[10] = target: T3, Beta-2 adrenergic receptor; assay: ADRB2 activation measured by internalization – cell-based, FAP fluorogen, flow cytometry, cherry pick 1, dose response (AID 588763); type: functional
[11] = Cytotoxicity Dose Response with AM2.2-beta2AR cells for PowderSet01.; type: functional, cell-based; conditions: read-out: EC50_MICROM
[12] = target: T4, High affinity choline transporter 1 (Homo sapiens, UniProt Q9GZV3); assay: human choline transporter potentiators, potency – cell-based, 10-point CRC, membrane potential dye, dose response (AID 602376); type: functional
T4 sequence (Q9GZV3 whole entry): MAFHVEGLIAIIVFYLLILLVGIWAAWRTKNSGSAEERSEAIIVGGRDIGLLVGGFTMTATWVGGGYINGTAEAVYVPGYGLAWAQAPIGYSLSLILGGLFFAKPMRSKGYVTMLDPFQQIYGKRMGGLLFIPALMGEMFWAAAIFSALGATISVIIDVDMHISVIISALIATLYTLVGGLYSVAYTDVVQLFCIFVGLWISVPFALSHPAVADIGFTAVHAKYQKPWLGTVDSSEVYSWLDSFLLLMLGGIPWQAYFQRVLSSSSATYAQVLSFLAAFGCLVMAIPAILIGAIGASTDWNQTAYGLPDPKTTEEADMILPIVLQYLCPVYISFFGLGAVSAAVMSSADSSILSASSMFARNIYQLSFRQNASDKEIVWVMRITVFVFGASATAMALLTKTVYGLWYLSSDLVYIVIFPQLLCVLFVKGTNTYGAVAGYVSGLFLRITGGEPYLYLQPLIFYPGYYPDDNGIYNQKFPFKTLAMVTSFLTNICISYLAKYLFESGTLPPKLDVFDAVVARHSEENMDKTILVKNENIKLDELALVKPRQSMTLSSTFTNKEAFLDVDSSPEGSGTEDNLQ

[13] = target: Potassium voltage-gated channel subfamily KQT member 2 (Rattus norvegicus, UniProt O88943); assay: blockers of KCNQ2 channel current – cell-based, automated electrophysiology, set II, rat KCNQ2, dose response (AID 588637); type: functional
[14] = target: T4, High affinity choline transporter 1; assay: human choline transporter blockers, potency – cell-based, 5-point CRC, membrane potential dye, dose response (AID 504840); type: functional
[15] = target: T4, High affinity choline transporter 1; assay: human choline transporter blockers, potency – cell-based, 10-point CRC, membrane potential dye, dose response (AID 588401); type: functional;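 further: membrane potential dye fluorescence of choline-evoked depolarization via CHT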
[16] = target: T5, Apoptotic protease-activating factor 1 (Homo sapiens, UniProt O14727); assay: SAR analysis of small molecule Activators of Apaf-1 in a Fluorescent assay.; type: functional; conditions: read-out: EC50_Mean;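 further: caspase-3 cleavage of fluorogenic Rh110 DEVD substrate downstream of apoptosome activation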
T5 sequence (O14727 whole entry): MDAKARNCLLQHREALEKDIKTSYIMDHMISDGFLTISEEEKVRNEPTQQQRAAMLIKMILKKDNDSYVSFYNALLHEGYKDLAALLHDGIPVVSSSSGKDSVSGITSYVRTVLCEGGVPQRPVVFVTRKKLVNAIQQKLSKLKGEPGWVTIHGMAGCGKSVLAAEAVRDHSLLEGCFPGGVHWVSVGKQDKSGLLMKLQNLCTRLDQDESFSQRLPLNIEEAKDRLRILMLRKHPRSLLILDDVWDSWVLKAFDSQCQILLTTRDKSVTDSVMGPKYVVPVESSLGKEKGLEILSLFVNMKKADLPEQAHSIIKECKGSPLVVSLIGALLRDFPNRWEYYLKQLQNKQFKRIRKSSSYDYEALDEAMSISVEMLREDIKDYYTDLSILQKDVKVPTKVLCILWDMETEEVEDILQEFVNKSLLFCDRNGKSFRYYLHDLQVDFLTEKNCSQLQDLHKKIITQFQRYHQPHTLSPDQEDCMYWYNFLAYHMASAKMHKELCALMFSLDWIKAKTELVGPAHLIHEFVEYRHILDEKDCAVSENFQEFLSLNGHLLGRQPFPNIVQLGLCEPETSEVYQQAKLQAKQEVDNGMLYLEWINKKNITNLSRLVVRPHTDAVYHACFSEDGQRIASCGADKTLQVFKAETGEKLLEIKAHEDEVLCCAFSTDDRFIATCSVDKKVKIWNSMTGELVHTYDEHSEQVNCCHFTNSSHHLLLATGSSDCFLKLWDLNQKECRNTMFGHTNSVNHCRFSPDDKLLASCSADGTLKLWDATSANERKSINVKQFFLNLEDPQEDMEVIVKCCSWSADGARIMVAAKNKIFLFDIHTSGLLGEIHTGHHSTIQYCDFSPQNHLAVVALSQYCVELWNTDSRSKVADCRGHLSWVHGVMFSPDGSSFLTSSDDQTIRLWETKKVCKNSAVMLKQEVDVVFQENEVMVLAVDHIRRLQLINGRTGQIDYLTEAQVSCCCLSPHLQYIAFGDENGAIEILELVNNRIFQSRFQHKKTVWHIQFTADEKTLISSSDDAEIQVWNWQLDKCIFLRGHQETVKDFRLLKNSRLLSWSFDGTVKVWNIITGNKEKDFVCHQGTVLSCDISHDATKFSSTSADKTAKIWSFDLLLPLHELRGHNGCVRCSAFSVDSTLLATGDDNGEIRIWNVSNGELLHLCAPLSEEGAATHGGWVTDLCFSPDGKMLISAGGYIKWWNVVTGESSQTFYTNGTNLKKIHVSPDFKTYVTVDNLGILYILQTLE

[17] = inhibition of ARNT PAS-B/TACC3 complex formation – biochemical, AlphaScreen, cherry-picked samples, confirmation (AID 651703); type: functional, Homo sapiens;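 further: His-tagged ARNT PAS-B domain paired with GST-TACC3 E629A dimer coactivator fragment; potency of inhibitors that break up the complex and lower AlphaScreen signal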
[18] = target: T6, Caspase-6 (Homo sapiens, UniProt P55212); assay: inhibition of CASP6 peptide cleavage – biochemical, VEID-R110 fluorescence, cherry-pick, dose response (AID 720632)
T6 sequence (P55212 whole entry): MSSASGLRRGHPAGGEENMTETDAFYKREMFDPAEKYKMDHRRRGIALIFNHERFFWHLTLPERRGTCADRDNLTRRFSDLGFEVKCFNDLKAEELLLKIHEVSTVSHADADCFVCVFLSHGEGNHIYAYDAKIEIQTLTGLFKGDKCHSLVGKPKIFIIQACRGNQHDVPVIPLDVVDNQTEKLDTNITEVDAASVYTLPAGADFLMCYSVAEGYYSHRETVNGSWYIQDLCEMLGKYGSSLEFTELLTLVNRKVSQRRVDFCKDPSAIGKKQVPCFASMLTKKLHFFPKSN

[19] = target: T7, Interleukin-8 (Homo sapiens, UniProt P10145); assay: Dose Response confirmation of uHTS small molecule hits for cystic fibrosis induced NFkb Inhibitors in a PAF-induced IL8 counterscreen.; type: functional; conditions: read-out: IC50_Mean
T7 sequence (P10145 whole entry): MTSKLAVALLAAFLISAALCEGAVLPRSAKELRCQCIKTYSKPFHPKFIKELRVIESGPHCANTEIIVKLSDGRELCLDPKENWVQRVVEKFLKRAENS

[20] = target: Melanin-concentrating hormone receptor 1 (Homo sapiens, UniProt Q99705); assay: Late-stage fluorescence-based counterscreen for antagonists of the G-protein coupled receptor 7 (GPR7): cell-based dose response assay to identify antagonists of the melanin-concentrating hormone receptor 1 (MCHR1) Set 5.; type: functional
[21] = target: T8, Mitochondrial peptide methionine sulfoxide reductase (Bos taurus, UniProt P54149); type: functional;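 further: absorbance read-out, biochemical high-throughput dose-response screen for MsrA inhibitors, confirmatory; recombinant bovine MsrA coupled to E. coli TrxB with NADPH and selenocystamine; potency is for inhibitors of MsrA activity on DMSO substrate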
T8 sequence (P54149 whole entry): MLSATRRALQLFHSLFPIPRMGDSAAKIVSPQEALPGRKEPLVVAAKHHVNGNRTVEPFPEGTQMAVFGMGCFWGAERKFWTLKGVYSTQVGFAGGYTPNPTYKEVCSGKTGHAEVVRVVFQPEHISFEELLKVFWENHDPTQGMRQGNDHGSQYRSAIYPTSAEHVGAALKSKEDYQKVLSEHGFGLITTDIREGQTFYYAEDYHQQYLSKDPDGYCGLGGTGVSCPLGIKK

[22] = target: Luciferin 4-monooxygenase (Photinus pyralis, UniProt P08659); assay: inhibition of purified Photinus pyralis luciferase – biochemical, luminescence, dose response (AID 1891)
[23] = Luminescence Cell-Based Dose Confirmation HTS to Identify Inhibitors of Platelet Dense Granule Release. [Related pubchem assays: 1663 (Primary HTS), 1678 (Summary of Project)]; type: functional

T3 sequence (P07550 whole entry): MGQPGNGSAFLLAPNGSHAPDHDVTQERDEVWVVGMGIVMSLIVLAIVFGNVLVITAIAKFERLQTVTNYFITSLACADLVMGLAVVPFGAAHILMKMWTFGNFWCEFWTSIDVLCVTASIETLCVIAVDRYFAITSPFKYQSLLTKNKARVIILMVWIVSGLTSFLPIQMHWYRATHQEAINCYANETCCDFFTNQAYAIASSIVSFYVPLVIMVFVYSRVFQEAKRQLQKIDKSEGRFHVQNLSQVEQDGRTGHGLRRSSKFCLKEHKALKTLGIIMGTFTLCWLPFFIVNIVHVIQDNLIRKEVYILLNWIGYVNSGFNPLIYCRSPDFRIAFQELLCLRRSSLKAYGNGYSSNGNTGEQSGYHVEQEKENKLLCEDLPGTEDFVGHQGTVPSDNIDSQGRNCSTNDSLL
Sequence of Luciferin 4-monooxygenase (P08659 whole entry): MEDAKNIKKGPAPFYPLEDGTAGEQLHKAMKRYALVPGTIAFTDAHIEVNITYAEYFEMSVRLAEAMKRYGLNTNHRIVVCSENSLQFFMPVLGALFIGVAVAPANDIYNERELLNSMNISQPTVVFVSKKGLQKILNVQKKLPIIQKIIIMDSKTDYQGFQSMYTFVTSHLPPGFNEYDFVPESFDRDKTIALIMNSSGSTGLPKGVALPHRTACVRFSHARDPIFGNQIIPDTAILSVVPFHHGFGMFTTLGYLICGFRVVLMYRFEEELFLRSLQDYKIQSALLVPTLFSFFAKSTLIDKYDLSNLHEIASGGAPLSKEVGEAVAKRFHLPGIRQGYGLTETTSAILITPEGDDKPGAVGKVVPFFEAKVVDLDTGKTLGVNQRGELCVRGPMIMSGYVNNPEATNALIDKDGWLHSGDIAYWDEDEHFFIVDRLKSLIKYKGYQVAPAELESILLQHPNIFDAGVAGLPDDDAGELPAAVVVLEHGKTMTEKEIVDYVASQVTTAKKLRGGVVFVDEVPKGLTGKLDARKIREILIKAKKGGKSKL
Sequence of Melanin-concentrating hormone receptor 1 (Q99705 whole entry): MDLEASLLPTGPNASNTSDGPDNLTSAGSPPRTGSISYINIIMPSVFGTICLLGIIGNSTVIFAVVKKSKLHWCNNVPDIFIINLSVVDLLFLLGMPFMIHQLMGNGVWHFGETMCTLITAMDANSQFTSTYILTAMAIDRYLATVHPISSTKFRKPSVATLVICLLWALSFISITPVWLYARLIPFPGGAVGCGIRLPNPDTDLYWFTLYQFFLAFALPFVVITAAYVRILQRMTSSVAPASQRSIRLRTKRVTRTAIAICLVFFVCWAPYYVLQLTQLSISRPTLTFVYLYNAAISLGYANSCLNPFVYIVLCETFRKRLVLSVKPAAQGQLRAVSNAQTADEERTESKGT
Sequence of Potassium voltage-gated channel subfamily KQT member 2 (O88943 whole entry): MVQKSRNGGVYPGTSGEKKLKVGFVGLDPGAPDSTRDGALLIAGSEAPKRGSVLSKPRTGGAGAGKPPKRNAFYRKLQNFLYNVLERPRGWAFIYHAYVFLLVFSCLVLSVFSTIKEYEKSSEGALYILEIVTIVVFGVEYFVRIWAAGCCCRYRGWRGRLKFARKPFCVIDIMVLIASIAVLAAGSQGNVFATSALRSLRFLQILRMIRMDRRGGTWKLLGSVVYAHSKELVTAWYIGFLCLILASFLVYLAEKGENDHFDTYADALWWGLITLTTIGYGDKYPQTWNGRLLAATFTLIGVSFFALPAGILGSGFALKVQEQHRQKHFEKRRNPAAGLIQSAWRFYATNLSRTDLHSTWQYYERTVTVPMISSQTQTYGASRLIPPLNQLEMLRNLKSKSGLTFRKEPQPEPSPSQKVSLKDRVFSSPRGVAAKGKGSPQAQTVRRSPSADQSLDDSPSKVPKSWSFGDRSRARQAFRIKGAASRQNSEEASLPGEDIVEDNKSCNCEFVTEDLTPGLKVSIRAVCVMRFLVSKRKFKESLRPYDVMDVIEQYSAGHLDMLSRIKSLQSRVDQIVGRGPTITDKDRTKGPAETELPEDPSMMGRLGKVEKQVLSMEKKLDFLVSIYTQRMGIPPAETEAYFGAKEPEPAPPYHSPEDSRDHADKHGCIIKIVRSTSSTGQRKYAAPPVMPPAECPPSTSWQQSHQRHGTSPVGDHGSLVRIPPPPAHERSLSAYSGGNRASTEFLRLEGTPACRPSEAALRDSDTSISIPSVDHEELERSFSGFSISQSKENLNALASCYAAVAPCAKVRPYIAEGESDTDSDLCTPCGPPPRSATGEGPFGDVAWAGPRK
Sequence of Hepatocyte nuclear factor 4-alpha (P41235 whole entry, the tested form may be a part): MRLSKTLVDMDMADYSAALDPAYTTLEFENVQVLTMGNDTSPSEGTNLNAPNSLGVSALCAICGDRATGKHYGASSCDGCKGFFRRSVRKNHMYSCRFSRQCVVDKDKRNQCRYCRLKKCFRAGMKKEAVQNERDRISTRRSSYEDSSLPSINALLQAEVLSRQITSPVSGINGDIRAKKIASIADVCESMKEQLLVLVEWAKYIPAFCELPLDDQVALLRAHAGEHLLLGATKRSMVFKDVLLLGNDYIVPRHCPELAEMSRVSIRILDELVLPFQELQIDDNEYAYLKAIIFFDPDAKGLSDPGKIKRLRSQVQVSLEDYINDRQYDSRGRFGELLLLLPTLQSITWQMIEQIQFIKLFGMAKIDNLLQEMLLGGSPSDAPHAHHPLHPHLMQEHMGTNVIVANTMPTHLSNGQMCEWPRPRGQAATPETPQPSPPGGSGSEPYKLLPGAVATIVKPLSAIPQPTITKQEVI
Sequence of Protein Wnt-3a (P27467 whole entry): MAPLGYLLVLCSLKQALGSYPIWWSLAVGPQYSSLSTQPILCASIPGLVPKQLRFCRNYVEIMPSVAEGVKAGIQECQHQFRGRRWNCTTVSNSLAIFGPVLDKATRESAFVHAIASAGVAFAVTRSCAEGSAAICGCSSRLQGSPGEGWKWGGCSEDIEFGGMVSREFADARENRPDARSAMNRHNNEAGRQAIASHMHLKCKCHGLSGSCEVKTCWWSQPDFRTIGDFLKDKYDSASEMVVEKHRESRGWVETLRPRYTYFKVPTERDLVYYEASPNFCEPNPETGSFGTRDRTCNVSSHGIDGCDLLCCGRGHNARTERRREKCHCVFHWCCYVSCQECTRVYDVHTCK

N=c1c2c(n(Cc3ccc(F)cc3)c3c1CCC3)CCCC2
EC50 [1]: 0.639 µM (active) | IC50 [2]: 13.8 µM (active) | EC50 [3]: > 60 µM (not active)

O=C(/C=C/Sc1ccccc1)c1ccc(Cl)cc1
IC50 [4]: 31 µM (active) | CC50 [5]: 14.2 µM (active) | IC50 [6]: 6.31 µM (active) | EC50 [7]: 9.05 µM (active) | AC50 [8]: 3.46 µM (active)

O=C(Nc1ccc(S(=O)(=O)N2CCCCC2c2cccnc2)cc1)c1c(F)cccc1F (stereo unspecified)
EC50 [9]: 0.119 µM (active) | EC50 [10]: 2.46 µM (active) | EC50 [11]: 5.39 µM (active)

COc1ccc(S(=O)(=O)N2c3ccccc3OCC2C)cc1 (stereo unspecified)
EC50 [12]: 13.9 µM (active)

CC1CCN(C(=O)Cn2c(=O)n(Cc3ccc4c(c3)OCO4)c(=O)c3ccccc32)CC1
IC50 [13]: 3.11 µM (active)

CCN1CCCC1CNC(=O)c1ccc2c(c1)N(Cc1cccc(Cl)c1)C(=O)c1ccccc1S2(=O)=O (stereo unspecified)
IC50 [14]: 8.64 µM (active) | IC50 [15]: 4.22 µM (active)

Cc1cc(NC(=O)C2CC(c3ccc(F)cc3)=NO2)n(-c2ccccc2)n1 (stereo unspecified)
EC50 [16]: > 100 µM (inactive)

C=CCOc1ccc(Br)cc1CNCCCN1CCOCC1
EC50 [12]: 14.2 µM (active)

CC1CCN(C(=O)COC(=O)c2ccc([N+](=O)[O-])o2)CC1
AC50 [17]: 122 µM (active) | AC50 [18]: 18.3 µM (active)

COc1cncc(-c2cnc3sc(NCCc4ccccn4)nn23)c1
IC50 [19]: 9.33 µM (active)

COc1ccc(Oc2c(Cl)cnn(Cc3cccc4ccccc34)c2=O)cc1F
IC50 [20]: 2.47 µM (active)

C/C(=N/O)c1cc(C(C)(C)C)c(O)c(C(C)(C)C)c1
IC50 [21]: 155 µM (inactive)

CCNC(=O)[C@H]1O[C@@H](n2cnc3c(N)nc(NCCc4ccc(CCC(=O)O)cc4)nc32)[C@H](O)[C@@H]1O
IC50 [14]: 0.915 µM (active) | EC50 [22]: > 112 µM (not active) | IC50 [15]: 0.807 µM (active) | EC50 [23]: < 0.088 µM (active)

— ChEMBL document CHEMBL1201862, “PubChem BioAssay data set” (2004)
